# Test results from patent publication EP2892896B1 (Bristol-Myers Squibb Company, priority 2012, dated 2014).
# Target: T1, human melanin concentrating hormone receptor (MCHR1) (Homo sapiens, UniProt Q99705, A5T/E4Q)
# T1 construct: expressed in transfected cells; host or cells: HEK-293 (stably transfected), membranes
# Test: Radioligand binding assay for assessment of MCHR1 activity
# Details: membranes from HEK-293 cells expressing a mutated (E4Q, A5T) hMCHR1 receptor; competition with 0.06 - 0.1 nM [Phe13, [125I]Tyr19]-MCH; 90 min
# Procedure: Radioligand Binding Assay for Assessment of MCHR1 Activity
# An in vitro binding assay was used to determine the compound Ki value or ability to antagonize binding of a peptide agonist to the human melanin concentrating hormone receptor (MCHR1). […] Binding experiments were carried out with 0.5-1.0 µg of membrane protein incubated in a total of 0.2 mL in 25 mM HEPES (pH 7.4) with 10 mM MgCl2, 2 mM EGTA, and 0.1% BSA (Binding Buffer) for 90 min. For competition binding assays, reactions were carried out in the presence of with 0.06 - 0.1 nM [Phe^13, [^125I]Tyr^19]-MCH and increasing concentrations of unlabeled test molecules. […] Filters were dried, 0.05 mL MicroScint 20 was added to each well and radioactivity was subsequently quantified by scintillation counting on a TOPCOUNT® microplate scintillation counter (Packard). Inhibitory constants were determined by nonlinear least squares analysis using a four parameter logistic equation.
# T1 sequence (Q99705 whole entry E4Q/A5T): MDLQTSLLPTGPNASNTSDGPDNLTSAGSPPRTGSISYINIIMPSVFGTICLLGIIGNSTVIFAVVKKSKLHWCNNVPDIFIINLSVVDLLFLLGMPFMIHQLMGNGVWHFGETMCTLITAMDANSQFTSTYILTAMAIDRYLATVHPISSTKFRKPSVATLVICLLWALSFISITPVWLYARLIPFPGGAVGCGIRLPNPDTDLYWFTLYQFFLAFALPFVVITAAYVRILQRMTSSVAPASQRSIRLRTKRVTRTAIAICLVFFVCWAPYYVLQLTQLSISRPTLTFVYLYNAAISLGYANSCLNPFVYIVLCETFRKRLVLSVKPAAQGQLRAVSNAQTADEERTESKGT
row,Ki,SMILES
1,522 nM,COc1cc(N2CCC(Oc3ccc(Br)c(Cl)c3)C2=O)ccc1OCC(C)(C)O (centres unmarked) [Example 41]
2,1430 nM,Cc1cc(N2CCC(Oc3ccc(C(F)(F)F)cc3)C2=O)ccc1OC[C@H](O)CS(C)(=O)=O (some centres unmarked) [Example 98]
3,6 nM,"COc1cc(N2CCC(Oc3ccc(-c4ccccc4F)cc3)C2=O)ccc1OCCS(C)(=O)=O (centres unmarked) [Example 67, 3-(2'-Fluorobiphenyl-4-yloxy)-1-(3-methoxy-4-(2-(methylsulfonyl)ethoxy)phenyl)pyrrolidin-2-one]"
4,11 nM,Cc1cc(N2CC[C@@H](Oc3ccc(OC(F)(F)F)cc3)C2=O)ccc1OCC(C)(C)O [Example 79]
5,3 nM,COc1cc(N2CC=C(Oc3ccc(-c4ccccc4)cc3)C2=O)ccc1OCC(C)(C)O [Example 122]
6,78 nM,CCS(=O)(=O)C[C@@H](O)COc1ccc(N2CCC(Oc3ccc(OC(F)(F)F)cc3)C2=O)cc1OC (some centres unmarked) [Example 51]
7,662 nM,COc1ccc(OC2CCN(c3ccc(OCC(C)(C)O)c(OC)c3)C2=O)cc1 (centres unmarked) [Example 5]
8,13 nM,COc1cc(N2CCC(Oc3ccc(-c4ccccc4)cc3)C2=O)ccc1OCCS(=O)(=O)CC(C)(C)O (centres unmarked) [Example 75]
9,2340 nM,COc1cc(N2CC[C@H](Oc3ccc(OC(F)(F)F)cc3)C2=O)ccc1OCC(C)(C)O [Example 16]
10,134 nM,COc1cc(N2CCC(Oc3ccc(OC(F)(F)F)cc3)C2=O)ccc1OCC(C)(C)O (centres unmarked) [Example 14]
11,67 nM,COc1cc(N2CCC(Oc3ccc(-c4cccnc4)cc3)C2=O)ccc1OCC(C)(C)O (centres unmarked) [Example 36]
12,5000 nM,"COc1cc(N2CCC(Oc3ccccc3Cl)C2=O)ccc1OCC(C)(C)O (centres unmarked) [Example 1, 3-(2-Chlorophenoxy)-1-(4-(2-hydroxy-2-methylpropoxy)-3-methoxyphenyl)pyrrolidin-2-one]"
13,38 nM,CCS(=O)(=O)C[C@@H](O)COc1ccc(N2CCC(Oc3ccc(-c4cccc(F)c4)cc3)C2=O)cc1OC (some centres unmarked) [Example 55]
14,81 nM,COc1cc(N2CCC(Oc3ccc(-c4ccccc4)nc3)C2=O)ccc1OCC(C)(C)O (centres unmarked) [Example 35]
15,21 nM,CCS(=O)(=O)C[C@@H](O)COc1ccc(N2CCC(Oc3ccc(-c4ccc(F)cc4)cc3)C2=O)cc1OC (some centres unmarked) [Example 54]
16,9 nM,Cc1cc(N2CC=C(Oc3ccc(C4CC4)cc3)C2=O)ccc1OCC(C)(C)O [Example 118]
17,23 nM,"COc1cc(N2CCC(Oc3ccc(C4CC4)cc3)C2=O)ccc1OCC(C)(C)O (centres unmarked) [Example 22, 3-(4-Cyclopropylphenoxy)-1-(4-(2-hydroxy-2-methylpropoxy)-3-methoxyphenyl)pyrrolidin-2-one]"
18,5 nM,Cc1cc(N2CC[C@@H](Oc3ccc(C4CC4)cc3)C2=O)ccc1OCC(C)(C)O [Example 84]
19,8 nM,"COc1cc(N2CCC(Oc3ccc(OC(F)(F)F)cc3)C2=O)ccc1OCCS(C)(=O)=O (centres unmarked) [Example 65, 1-(3-Methoxy-4-(2-(methylsulfonyl)ethoxy)phenyl)-3-(4-(trifluoromethoxy)phenoxy)pyrrolidin-2-one]"
20,11 nM,Cc1cc(N2CCC(Oc3ccc(C4CC4)cc3)C2=O)ccc1OCC(C)(C)O (centres unmarked) [Example 82]
21,7 nM,COc1cc(N2CCC(Oc3ccc(-c4ccccc4)cc3)C2=O)ccc1OCC1(O)CC(F)(F)C1 (centres unmarked) [Example 47]
22,3 nM,Cc1cc(N2CC[C@@H](Oc3ccc(-c4ccc(F)cc4)cc3)C2=O)ccc1OCCS(C)(=O)=O [Example 110]

row,Ki,SMILES
1,9 nM,"COc1cc(N2CCC(Oc3ccc(-c4ccccc4F)cc3)C2=O)ccc1OCC(C)(C)O (centres unmarked) [Example 24, 3-(2'-Fluorobiphenyl-4-yloxy)-1-(4-(2-hydroxy-2-methylpropoxy)-3-methoxyphenyl)pyrrolidin-2-one]"
2,15 nM,Cc1cc(N2CCC(Oc3ccc(-c4ccccc4)cc3)C2=O)ccc1OC[C@H](O)CS(C)(=O)=O (some centres unmarked) [Example 95]
3,2 nM,COc1cc(N2CCC(Oc3ccc(-c4ccccc4)cc3)C2=O)ccc1OCC1(O)CCS(=O)(=O)CC1 (centres unmarked) [Example 57]
4,18 nM,COc1cc(N2CCC(Oc3ccc(-c4ccc(F)cc4)cc3)C2=O)ccc1OC[C@H](O)CS(C)(=O)=O (some centres unmarked) [Example 59]
5,12 nM,COc1cc(N2CCC(Oc3ccc(C4CC4)cc3)C2=O)ccc1OC[C@H](O)C1CC1 (some centres unmarked) [Example 46]
6,22 nM,Cc1cc(N2CCC(Oc3ccc(-c4ccc(F)cc4)cc3)C2=O)ccc1OC[C@H](O)CS(C)(=O)=O (some centres unmarked) [Example 96]
7,5 nM,COc1cc(N2CCC(Oc3ccc(-c4cccc(F)c4)cc3)C2=O)ccc1OCCS(C)(=O)=O (centres unmarked) [Example 68]
8,87 nM,COc1cc(N2CC[C@H](Oc3ccc(C4CC4)cc3)C2=O)ccc1OCCS(C)(=O)=O [Example 73]
9,6000 nM,COc1cc(N2CCC(Oc3cccc(C(F)(F)F)c3)C2=O)ccc1OCC(C)(C)O (centres unmarked) [Example 7]
10,402 nM,COc1cc(N2CCC(Oc3ccc(OC(F)(F)F)cc3Cl)C2=O)ccc1OCC(C)(C)O (centres unmarked) [Example 17]
11,2 nM,COc1cc(N2CC[C@@H](Oc3ccc(-c4ccccc4)cc3)C2=O)ccc1OCC(C)(C)O [Example 21]
12,7 nM,CCS(=O)(=O)C[C@@H](O)COc1ccc(N2CCC(Oc3ccc(-c4ccccc4)cc3)C2=O)cc1C (some centres unmarked) [Example 91]
13,493 nM,COc1cc(N2CC[C@H](Oc3ccc(-c4ccccc4)cc3)C2=O)ccc1OCC(C)(C)O [Example 20]
14,23 nM,"COc1cc(N2CC[C@@H](Oc3ccc(C(F)(F)F)cc3)C2=O)ccc1OCC(C)(C)O (single isomer, unassigned) [Example 9]"
15,44 nM,COc1cc(N2CCC(Oc3ccc(OC4CC4)cc3)C2=O)ccc1OCC(C)(C)O (centres unmarked) [Example 23]
16,4 nM,Cc1cc(N2CCC(Oc3ccc(-c4ccccc4)cc3)C2=O)ccc1OCC(C)(C)O (centres unmarked) [Example 80]
17,38 nM,COc1cc(N2CCC(Oc3ccc(-c4ccc(F)cc4)cc3)C2=O)ccc1OC[C@@H](O)CS(C)(=O)=O (some centres unmarked) [Example 63]
18,32 nM,COc1cc(N2CCC(Oc3ccc(C4CC4)cc3)C2=O)ccc1OC[C@@H](O)CS(C)(=O)=O (some centres unmarked) [Example 64]
19,15 nM,Cc1cc(N2CCC(Oc3ccc(OC(F)(F)F)cc3)C2=O)ccc1OCC(C)(C)O (centres unmarked) [Example 77]
20,65 nM,COc1cc(N2CCC(Oc3ccc(OC(F)(F)F)cc3)C2=O)ccc1OC[C@H](O)CS(C)(=O)=O (some centres unmarked) [Example 61]
21,4 nM,COc1cc(N2CCC(Oc3ccc(-c4ccccc4)cc3)C2=O)ccc1OCC(C)(C)O (centres unmarked) [Example 19]
22,26 nM,Cc1cc(N2CCC(Oc3ccc(C(F)(F)F)cc3)C2=O)ccc1OCC(C)(C)O (centres unmarked) [Example 76]

row,Ki,SMILES
1,79 nM,Cc1cc(N2CCC(Oc3ccc(C4CC4)cc3)C2=O)ccc1OC[C@H](O)CS(C)(=O)=O (some centres unmarked) [Example 97]
2,634 nM,COc1cc(N2CCC(Oc3ccc(-c4ccncc4Cl)cc3)C2=O)ccc1OCC(C)(C)O (centres unmarked) [Example 32]
3,34 nM,COc1cc(N2CCC(Oc3ccc(-c4ccccc4F)c(F)c3)C2=O)ccc1OCC(C)(C)O (centres unmarked) [Example 31]
4,6 nM,Cc1cc(N2CCC(Oc3ccc(-c4ccc(F)cc4)cc3)C2=O)ccc1OCCS(C)(=O)=O (centres unmarked) [Example 109]
5,57 nM,CCS(=O)(=O)C[C@@H](O)COc1ccc(N2CCC(Oc3ccc(C4CC4)cc3)C2=O)cc1C (some centres unmarked) [Example 93]
6,5 nM,Cc1cc(N2CCC(Oc3ccc(-c4cccc(F)c4)cc3)C2=O)ccc1OCCS(C)(=O)=O (centres unmarked) [Example 108]
7,81 nM,COc1cc(N2CCC(Oc3ccc(-c4ccccc4C)cc3)C2=O)ccc1OCC(C)(C)O (centres unmarked) [Example 26]
8,9 nM,"COc1cc(N2CCC(Oc3ccc(-c4ccccc4)cc3)C2=O)ccc1OC[C@H](O)CS(C)(=O)=O (stereo partly drawn) [Example 58, 3-(Biphenyl-4-yloxy)-1-(4-((S)-2-hydroxy-3-(methylsulfonyl)propoxy)-3-methoxyphenyl)pyrrolidin-2-one]"
9,22 nM,Cc1cc(N2CCC(Oc3ccc(I)cc3)C2=O)ccc1OCC(C)(C)O (centres unmarked) [Example 85]
10,4 nM,COc1cc(N2CC[C@@H](Oc3ccc(-c4ccccc4)cc3)C2=O)ccc1OC[C@H](O)C1CC1 [Example 44]
11,6000 nM,Cc1cc(N2CC[C@H](Oc3ccc(OC(F)(F)F)cc3)C2=O)ccc1OCC(C)(C)O [Example 78]
12,13 nM,"COc1cc(N2CCC(Oc3ccc(-c4ccccc4)cn3)C2=O)ccc1OCC(C)(C)O (centres unmarked) [Example 34, 1-(4-(2-Hydroxy-2-methylpropoxy)-3-methoxyphenyl)-3-(5-phenylpyridin-2-yloxy)pyrrolidin-2-one]"
13,7 nM,CS(=O)(=O)CCOc1ccc(N2CCC(Oc3ccc(-c4ccccc4)cc3)C2=O)cc1OCCF (centres unmarked) [Example 72]
14,714 nM,CCS(=O)(=O)C[C@@H](O)COc1ccc(N2CCC(Oc3ccc(OC(F)(F)F)cc3)C2=O)cc1C (some centres unmarked) [Example 94]
15,12 nM,COc1cc(N2CCC(Oc3ccc(-c4ccccc4)c(F)c3)C2=O)ccc1OCC(C)(C)O (centres unmarked) [Example 30]
16,11 nM,COc1cc(N2CCC(Oc3ccc(-c4ccccc4)cc3)C2=O)ccc1OC[C@@H](O)CS(C)(=O)=O (some centres unmarked) [Example 62]
17,37 nM,Cc1cc(N2CCC(Oc3ccc(-c4ccncc4)cc3)C2=O)ccc1OCC(C)(C)O (centres unmarked) [Example 89]
18,25 nM,Cc1cc(N2CC=C(Oc3ccc(OC(F)(F)F)cc3)C2=O)ccc1OCC(C)(C)O [Example 117]
19,10000 nM,COc1cc(N2CCC(Oc3cccc(Cl)c3)C2=O)ccc1OCC(C)(C)O (centres unmarked) [Example 2]
20,7000 nM,Cc1cc(N2CCC(Oc3ccc(Br)nc3)C2=O)ccc1OCC(C)(C)O (centres unmarked) [Example 87]

row,SMILES,Ki
1,COc1cc(N2CCC(Oc3ccc(Br)c(F)c3)C2=O)ccc1OCC(C)(C)O (centres unmarked) [Example 42],821 nM
